Results from patent US9315448B2 (Cesa Alliance S.A., priority 2011, dated 2016).

Assays:
[1] = test system: Porcine reproductive and respiratory syndrome virus; assay: Case study, PRRS confirmed piglets; type: in vivo, Pig (piglet); settings: for Treated - Improvement / Treated Virus or symptom free: Pig (piglet), wt.% per Table 2; for confirmed PRRS free / recovered completely / showed signs of recovery: piglets
Rotavirus = assay: Case study, piglets with confirmed Rotavirus infections; type: in vivo, Pig (piglet); settings: for Treated - Improvement / Treated Virus or symptom free: Pig (piglet), 2 days, wt.% per Table 2; for de-activation of the Rota virus confirmed / recovered completely / stopped having diarrhea: piglets
Method: All three piglets, which would normally experience 3 to 4 days of severe symptoms including diarrhea stopped having diarrhea on/after one day. The de-activation of the Rota virus infected was confirmed on/after the second day. The piglets recovered completely within 2 days.
Three piglets with confirmed Rotavirus infections were treated immediately with 50 mg of the compound of formula B, six times a day for 2 days. All 3 piglets, which would normally experience 4 to 5 days of severe symptoms including diarrhea stopped having diarrhea on/after the second day.
Both piglets, which would normally experience 3 to 4 days of severe symptoms including diarrhea stopped having diarrhea after one day.
(§1) All 3 piglets, which would normally experience 3 to 4 days of severe symptoms including diarrhea stopped having diarrhea after one day.
(§2) All 3 piglets, which would normally experience 3 to 4 days of severe symptoms including diarrhea stopped having diarrhea on/after one day.
as §2, §1

Parvovirus = assay: Case study, Parvo infected puppy; settings: for Treated - Improvement / Treated Virus or symptom free: Dog (puppy), 300 mg, 3 times/day, 4 days, wt.% per Table 2; for confirmed Parvo free / recovered completely / showed signs of recovery: puppy, 300 mg three times a day for 4 days
Canine Herpes virus = assay: Case study, Canine Herpes infected puppy; type: in vivo, Dog (puppy); settings: for Treated - Improvement / Treated Virus or symptom free: Dog (puppy), 300 mg, 3 times/day, 4 days, wt.% per Table 2
[2] = test system: DNA enveloped, DNA non-enveloped, RNA enveloped and RNA non-enveloped viruses; assay: In vivo case studies, overall conclusions across virus families; settings: no base oil
[3] = test system: human papilloma virus 2 and 7; assay: Case study, skin warts of a patient
Method: Skin warts of patient were treated with 10 mg of the compound of formula B, three times a day for 3 days.
Skin warts of a patient were treated with 10 mg of the compound of formula B+C, three times a day for 3 days.
Skin warts of a patient were treated with 10 mg of the compound of formula A+B+C, three times a day for 3 days.

[4] = test system: herpes simplex virus type 1; assay: Case study, Herpes Labialis patient, topical treatment; type: in vivo, Human
[5] = 500 mg three times a day for 4 days
[6] = 500 mg three times a day for 2 days
[7] = puppy, 300 mg three times a day for 4 days
[8] = Human (skin), 10 mg, 3 times/day, 3 days, wt.% per Table 2
[9] = 50 mg six times a day for 3 days
[10] = Human (skin), 10 mg, 3 times/day, 1 day, wt.% per Table 2
[11] = patient, topical, 10 mg three times a day for 1 day, from onset of lesions
[12] = 50 mg six times a day for 2 days

Structure (SMILES)	Treated - Improvement ([1]; 500 mg, 3 times/day, 4 days) [days]	Treated Virus or symptom free ([1]; 500 mg, 3 times/day, 4 days)	confirmed PRRS free [1, 5]	recovered completely [1, 5] [days]	showed signs of recovery [1, 5]	Treated - Improvement (Rotavirus; 500 mg, 3 times/day) [days]	Treated Virus or symptom free (Rotavirus; 500 mg, 3 times/day)	de-activation of the Rota virus confirmed (Rotavirus; [6])	recovered completely (Rotavirus; [6]) [days]	stopped having diarrhea (Rotavirus; [6])	Treated - Improvement (Parvovirus) [days]	Treated Virus or symptom free (Parvovirus)	confirmed Parvo free (Parvovirus)	recovered completely (Parvovirus) [days]	showed signs of recovery (Parvovirus)	Treated - Improvement (Canine Herpes virus) [days]	Treated Virus or symptom free (Canine Herpes virus)	confirmed Herpes free (Canine Herpes virus; [7])	recovered completely (Canine Herpes virus; [7]) [days]	results with 100 wt. % of compound compared with Tables 1 and 2 [2]	also measured
C=C=C(C)c1cc(O)c(O)c(C(=O)C[C@](C)(O)C=C)c1 [Formula A]	1	Day 2	2 day of treatment	4	one	1	Day 2	second	≤ 2	one	1	Day 4	4 day of treatment	6	first	2	Day 4	4 day of treatment	10	same results	showed signs of recovery (Canine Herpes virus; [7]): second
C=C=C(C)c1cc(O)c(O)c(C(=O)C(C)C(C)(C)O)c1 (stereo not shown) [Formula B, 2,3(dihydroxy), 5[3(1,2)butadiene], 2[2-methylbutane]benzenal]																				same results	Treated - Improvement [3, 8]: 7 days; Treated Virus or symptom free [3, 8]: 21 days; skin tissue disappeared completely ([3]; patient, 10 mg three times a day for 3 days): 3 weeks; warts started to soften and becoming white ([3]; patient, 10 mg three times a day for 3 days, time printed in words): a week; Treated - Improvement ([1]; 50 mg, 6 times/day, 3 days): 2 days; Treated Virus or symptom free ([1]; 50 mg, 6 times/day, 3 days): Day 3; confirmed PRRS free [1, 9]: 3 day of treatment; recovered completely [1, 9]: 4 days; showed signs of recovery [1, 9]: second; Treated - Improvement [4, 10]: 3 days; Treated Virus or symptom free [4, 10]: Day 4; course of the infection [4, 11]: did not get worse; lesions started to disappear [4, 11]: second; no more signs of infection [4, 11]: 4 days; Treated - Improvement (Rotavirus; 50 mg, 6 times/day): 2 days; Treated Virus or symptom free (Rotavirus; 50 mg, 6 times/day): Day 3; de-activation of the Rota virus confirmed (Rotavirus; [12]): second; recovered completely (Rotavirus; [12]): ≤ 3 days; stopped having diarrhea (Rotavirus; [12]): second
C=C=C(C)c1cc(O)c(O)c(C(=O)O[C@](C)(O)C=C)c1 [Formula C, 2,3(dihydroxy), 5[3(1,2)butadiene], 2hydroxy,3butene benzoate]	1	Day 2	2 day of treatment	4	one	1	Day 2	first	≤ 2	one	1	Day 4	4 day of treatment	6	first	2	Day 4	4 day of treatment	7	same results	
